Test system: C57BL/6 mice
Experiment: Hair regrowth after dorsal hair removal in mice
Type: in vivo
Description: Wild-type C57BL/6 mice (7-8 weeks old) were placed in the lateral decubitus position on a sterile paper sheet after anesthesia using intraperitoneal injection of ketamine (60 mg/kg) and xylazine (4 mg/kg). Sterile surgical instruments (autoclaved) were used during dorsal hair removal. The skin was prepared for hair removal on the dorso-lateral skin (from neck to tail) by shaving with a mechanical shaver, and then hair removal cream (Nair) was placed on the skin for 30-60 seconds. Hair was removed completely by gently wiping the skin with cotton balls soaked in warm water and disinfected using 70% ethanol wipes and betadine 3 times.
After dorsal hair removal, mice were placed in a clean cage on the heating pad for 30 minutes or until recovery. […]
At day 14, the backs of the mice were photographed with a digital camera, to evaluate the darkening of skin color. […] In morphological observation (FIG. 1A and FIG. 1), hair growth area was determined as a percentage after photographing hair growth state on the backs of mice and observation was conducted after hair removal at day 0 and after 4-AP treatment (daily systemic) at day 14. […] The level of hair regrowth/pigmentation was quantified by the intensity of the darkness of the back skin in the same area. […]

`Nc1ccncc1` [4-AP, 4-aminopyridine] was tested, and the “number of hair follicles (H&E transverse sections)” value (day 14, compared with saline treated mice) was “increased” and the hair regrowth (day 14 after hair removal, systemic ip 10-50 μg/daily) was “around 50%”.
